# Data reported in patent US10501414B2, “Indole analogs as 5-oxo-ETE receptor antagonists and method of use thereof” (THE ROYAL INSTITUTION FOR THE ADVANCEMENT OF …, priority 2015, dated 2019).
# Values joined by “and” are separate entries in the source; they are usually repeats but may differ in a detail not shown here. Equal entries are not always repeated.
# Molecular target: T1, OXE receptor (Homo sapiens, UniProt Q8TDS5)
# T1 construct: Human granulocytes (≥95% neutrophils) are prepared from whole blood; endogenous in cells; host or cells: human granulocytes (≥95% neutrophils) from whole blood
# T1 sequence (Q8TDS5 whole entry): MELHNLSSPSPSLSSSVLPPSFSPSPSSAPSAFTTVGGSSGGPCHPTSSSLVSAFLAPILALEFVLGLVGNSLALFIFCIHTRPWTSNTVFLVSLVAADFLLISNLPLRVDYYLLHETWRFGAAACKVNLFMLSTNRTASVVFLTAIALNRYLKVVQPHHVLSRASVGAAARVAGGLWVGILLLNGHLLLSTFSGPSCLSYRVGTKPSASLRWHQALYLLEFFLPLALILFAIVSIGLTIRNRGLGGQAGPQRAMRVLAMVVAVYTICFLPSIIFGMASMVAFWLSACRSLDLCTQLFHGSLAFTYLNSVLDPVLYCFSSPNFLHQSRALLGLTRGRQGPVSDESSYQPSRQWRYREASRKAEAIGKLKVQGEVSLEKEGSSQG
# Assay: Calcium mobilization in human granulocytes (inhibition of 5-oxo-ETE-induced calcium mobilization)
# Type: cell-based
# Details: 5-oxo-ETE-induced calcium mobilization
# Method: Evaluation of Antagonist Activity: Calcium Mobilization in Human Granulocytes
# Human granulocytes (≥95% neutrophils) are prepared from whole blood using Dextran 500 to remove red blood cells, followed by centrifugation over Ficoll-Paque to remove mononuclear cells and hypotonic lysis of any remaining red blood cells. After centrifugation the granulocytes are suspended in Ca^++/Mg^++-free phosphate-buffered saline (PBS^−). Granulocytes (10^7 cells/ml) are incubated with the acetoxymethyl ester of indo-1 (1 μM) for 30 min, followed by washing twice with PBS^− and resuspension in the same medium to obtain a final cell concentration of 3.22×10^6 cells/ml. Five minutes prior to commencing data acquisition, Ca^++ and Mg^++ are added to give final concentrations of 1.8 and 1 mM, respectively. Calcium measurements are performed at 37° C. using a spectrofluorometer equipped with a temperature-controlled cuvette holder and a magnetic stirrer. The excitation and emission wavelengths are 331 nm and 410 nm, respectively. Following stabilization of the baseline, fluorescence is measured for 1 min, prior to the addition of either vehicle or various concentrations of a potential 5-oxo-ETE antagonist. Two min later, 5-oxo-ETE (10 nM) is added, followed 1 min later by digitonin (final concentration 0.1%). Data acquisition is terminated after a further 0.5 min. Fmax is determined from fluorescence measurements after the addition of digitonin, whereas Fmin is determined after determination of autofluorescence as described in the literature. A dissociation constant of 250 nM for the indo-1/Ca^++ complex is used to calculate [Ca^++]i. The % inhibition of 5-oxo-ETE-induced calcium mobilization by the antagonist is calculated as follows: Inhibition (%)=(1−(Caant/Ca^++veh))×100 where Caant is the increase in cytosolic calcium levels induced by 5-oxo-ETE (10 nM) following the addition of a potential antagonist, whereas Caveh is the response induced by 5-oxo-ETE following addition of vehicle alone.
row,Structure (SMILES),antagonist activity / potency in words
1,COc1ccccc1CCCCCC(O)c1c(C(=O)C[C@H](C)CC(=O)O)c2cc(Cl)ccc2n1C (stereo partly drawn) [Compound 49M],antagonists and 5-oxo-ETE-induced calcium mobilization inhibitors
2,C[C@H](CC(=O)O)CC(=O)c1c(C(O)CCCCCc2ccc(F)cc2)n(C)c2ccc(Cl)cc12 (stereo partly drawn) [Compound 54M],antagonists and 5-oxo-ETE-induced calcium mobilization inhibitors
3,"CCC(C)CCCc1c(C(=O)CC(C)CC(=O)O)c2cc(Cl)ccc2n1C (stereo not drawn) [Compound V225, reference compound]",somewhat less potent

# Same assay, conditions: 5-oxo-ETE-induced calcium mobilization; read-out: potency (IC50) in the picomolar range
row,Structure (SMILES),IC50
1,"CC(CC(=O)O)CC(=O)c1c(CCCCCCc2cccc(Cl)c2)n(C)c2ccc(Cl)cc12 (racemic) [Compound 20, 5-(5-chloro-2-(6-(3-chlorophenyl)hexyl)-1-methyl-1H-indol-3-yl)-3-methyl-5-oxopentanoic acid]",~0.033 nM
2,"CC(CC(=O)O)CC(=O)c1c(CCCCCCc2cccc(F)c2)n(C)c2ccc(Cl)cc12 (racemic) [Compound 21, 5-(5-chloro-2-(6-(3-fluorophenyl)hexyl)-1-methyl-1H-indol-3-yl)-3-methyl-5-oxopentanoic acid]",~0.072 nM
3,"COc1cccc(CCCCCCc2c(C(=O)CC(C)CC(=O)O)c3cc(Cl)ccc3n2C)c1 (racemic) [Compound 22, 5-(5-chloro-2-(6-(3-methoxyphenyl)hexyl)-1-methyl-1H-indol-3-yl)-3-methyl-5-oxopentanoic acid]",~0.086 nM

# Same assay, conditions: inhibition of calcium mobilization induced by 5-oxo-ETE (10 nM) in human granulocytes; bracketed figure in cell = n; read-out: IC50
row,Structure (SMILES),IC50
1,"CC(CC(=O)O)CC(=O)c1c(CCCCc2ccccc2)n(C)c2ccc(Cl)cc12 (racemic) [Compound 13, methyl 5-(5-chloro-1-methyl-2-(4-phenylbutyl)-1H-indol-3-yl)-3-methyl-5-oxopentanoic acid]",38 ± 8 nM
2,"CC(CC(=O)O)CC(=O)c1c(CCCCCCc2cccc(Cl)c2)n(C)c2ccc(Cl)cc12 (racemic) [Compound 20, 5-(5-chloro-2-(6-(3-chlorophenyl)hexyl)-1-methyl-1H-indol-3-yl)-3-methyl-5-oxopentanoic acid]",0.033 ± 0.003 nM
3,"CC(CC(=O)O)CC(=O)c1c(CCCCCCc2cccc(F)c2)n(C)c2ccc(Cl)cc12 (racemic) [Compound 21, 5-(5-chloro-2-(6-(3-fluorophenyl)hexyl)-1-methyl-1H-indol-3-yl)-3-methyl-5-oxopentanoic acid]",0.072 ± 0.007 nM
4,"COc1cccc(CCCCCCc2c(C(=O)CC(C)CC(=O)O)c3cc(Cl)ccc3n2C)c1 (racemic) [Compound 22, 5-(5-chloro-2-(6-(3-methoxyphenyl)hexyl)-1-methyl-1H-indol-3-yl)-3-methyl-5-oxopentanoic acid]",0.086 ± 0.017 nM
5,"C[C@H](CC(=O)O)CC(=O)c1c(CCCCCCc2ccccc2F)n(C)c2ccc(Cl)cc12 (single isomer, unassigned) [Compound 48]",0.27 ± 0.06 nM
6,"C[C@H](CC(=O)O)CC(=O)c1c(CCCCCCc2cccc(F)c2)n(C)c2ccc(Cl)cc12 (single isomer, unassigned) [Compound 51]",0.037 ± 0.005 nM
7,"COc1cccc(CCCCCCc2c(C(=O)C[C@H](C)CC(=O)O)c3cc(Cl)ccc3n2C)c1 (single isomer, unassigned) [Compound 52]",0.051 ± 0.007 nM
8,"C[C@@H](CC(=O)O)CC(=O)c1c(CCCCCCc2ccccc2Cl)n(C)c2ccc(Cl)cc12 (single isomer, unassigned) [Compound 62]",81 ± 34 nM
9,"C[C@@H](CC(=O)O)CC(=O)c1c(CCCCCCc2ccccc2F)n(C)c2ccc(Cl)cc12 (single isomer, unassigned) [Compound 63]",2.9 ± 0.1 nM
10,"COc1ccccc1CCCCCCc1c(C(=O)C[C@@H](C)CC(=O)O)c2cc(Cl)ccc2n1C (single isomer, unassigned) [Compound 64]",54 ± 23 nM
11,"C[C@@H](CC(=O)O)CC(=O)c1c(CCCCCCc2cccc(Cl)c2)n(C)c2ccc(Cl)cc12 (single isomer, unassigned) [Compound 65]",0.64 ± 0.1 nM
12,"C[C@@H](CC(=O)O)CC(=O)c1c(CCCCCCc2cccc(F)c2)n(C)c2ccc(Cl)cc12 (single isomer, unassigned) [Compound 66]",1.8 ± 0.3 nM
13,"COc1cccc(CCCCCCc2c(C(=O)C[C@@H](C)CC(=O)O)c3cc(Cl)ccc3n2C)c1 (single isomer, unassigned) [Compound 67]",50 ± 13 nM
14,"C[C@@H](CC(=O)O)CC(=O)c1c(CCCCCCc2ccc(F)cc2)n(C)c2ccc(Cl)cc12 (single isomer, unassigned) [Compound 69]",4.45 ± 1.05 nM
15,"CC(CC(=O)O)CC(=O)c1c(CCCc2ccccc2)n(C)c2ccc(Cl)cc12 (stereo not drawn) [Compound 12, 5-(5-chloro-1-methyl-2-(3-phenylpropyl)-1H-indol-3-yl)-3-methyl-5-oxopentanoic acid, reference compound]",223 ± 18 nM
16,"CC(CC(=O)O)CC(=O)c1c(CCCCCc2ccccc2)n(C)c2ccc(Cl)cc12 (stereo not drawn) [Compound 14, 5-(5-chloro-1-methyl-2-(5-phenylpentyl)-1H-indol-3-yl)-3-methyl-5-oxopentanoic acid]",11 ± 1 nM
17,"CC(CC(=O)O)CC(=O)c1c(CCCCCCc2ccccc2Cl)n(C)c2ccc(Cl)cc12 (stereo not drawn) [Compound 17, 5-(5-chloro-2-(6-(2-chlorophenyl)hexyl)-1-methyl-1H-indol-3-yl)-3-methyl-5-oxopentanoic acid]",0.44 ± 0.13 nM
18,"CC(CC(=O)O)CC(=O)c1c(CCCCCCc2ccccc2F)n(C)c2ccc(Cl)cc12 (stereo not drawn) [Compound 18, 5-(5-chloro-2-(6-(2-fluorophenyl)hexyl)-1-methyl-1H-indol-3-yl)-3-methyl-5-oxopentanoic acid]",0.41 ± 0.07 nM
19,"COc1ccccc1CCCCCCc1c(C(=O)CC(C)CC(=O)O)c2cc(Cl)ccc2n1C (stereo not drawn) [Compound 19, 5-(5-chloro-2-(6-(2-methoxyphenyl)hexyl)-1-methyl-1H-indol-3-yl)-3-methyl-5-oxopentanoic acid]",0.18 ± 0.05 nM

row,Structure (SMILES),IC50
1,"CC(CC(=O)O)CC(=O)c1c(CCCCCCc2ccc(Cl)cc2)n(C)c2ccc(Cl)cc12 (stereo not drawn) [Compound 23, 5-(5-chloro-2-(6-(4-chlorophenyl)hexyl)-1-methyl-1H-indol-3-yl)-3-methyl-5-oxopentanoic acid]",0.63 ± 0.22 nM
2,"CC(CC(=O)O)CC(=O)c1c(CCCCCCc2ccc(F)cc2)n(C)c2ccc(Cl)cc12 (stereo not drawn) [Compound 24, 5-(5-chloro-2-(6-(4-fluorophenyl)hexyl)-1-methyl-1H-indol-3-yl)-3-methyl-5-oxopentanoic acid]",0.8 ± 0.24 nM
3,"COc1ccc(CCCCCCc2c(C(=O)CC(C)CC(=O)O)c3cc(Cl)ccc3n2C)cc1 (stereo not drawn) [Compound 25, 5-(5-chloro-2-(6-(4-methoxyphenyl)hexyl)-1-methyl-1H-indol-3-yl)-3-methyl-5-oxopentanoic acid]",0.63 ± 0.08 nM
4,"CC(CC(=O)O)CC(=O)c1c(CCCCCCc2cccc(O)c2)n(C)c2ccc(Cl)cc12 (stereo not drawn) [Compound 38, 5-(5-chloro-2-(6-(3-hydroxyphenyl)hexyl)-1-methyl-1H-indol-3-yl)-3-methyl-5-oxopentanoic acid]",1.9 ± 0.3 nM
5,"C[C@H](CC(=O)O)CC(=O)c1c(CCCCCCc2ccccc2Cl)n(C)c2ccc(Cl)cc12 [Compound 47, (S)-5-(5-chloro-2-(6-(2-chlorophenyl)hexyl)-1-methyl-1H-indol-3-yl)-3-methyl-5-oxopentanoic acid]",0.55 ± 0.19 nM
6,"COc1ccccc1CCCCCCc1c(C(=O)C[C@H](C)CC(=O)O)c2cc(Cl)ccc2n1C [Compound 49, (S)-5-(5-chloro-2-(6-(2-methoxyphenyl)hexyl)-1-methyl-1H-indol-3-yl)-3-methyl-5-oxopentanoic acid]",0.1 ± 0.02 nM
7,COc1ccccc1CCCCCC(O)c1c(C(=O)C[C@H](C)CC(=O)O)c2cc(Cl)ccc2n1C (stereo partly drawn) [Compound 49M],0.58 ± 0.21 nM
8,C[C@H](CC(=O)O)CC(=O)c1c(C(O)CCCCCc2cccc(Cl)c2)n(C)c2ccc(Cl)cc12 (stereo partly drawn) [Compound 50M],0.08 ± 0.02 nM
9,"C[C@H](CC(=O)O)CC(=O)c1c(CCCCCCc2ccc(Cl)cc2)n(C)c2ccc(Cl)cc12 [Compound 53, (S)-5-(5-chloro-2-(6-(4-chlorophenyl)hexyl)-1-methyl-1H-indol-3-yl)-3-methyl-5-oxopentanoic acid]",0.47 ± 0.16 nM
10,"C[C@H](CC(=O)O)CC(=O)c1c(CCCCCCc2ccc(F)cc2)n(C)c2ccc(Cl)cc12 [Compound 54, (S)-5-(5-chloro-2-(6-(4-fluorophenyl)hexyl)-1-methyl-1H-indol-3-yl)-3-methyl-5-oxopentanoic acid]",0.39 ± 0.09 nM
11,C[C@H](CC(=O)O)CC(=O)c1c(C(O)CCCCCc2ccc(F)cc2)n(C)c2ccc(Cl)cc12 (stereo partly drawn) [Compound 54M],1.4 ± 0.4 nM
12,"CC(CC(=O)O)CC(=O)c1c(COCCCc2ccccc2)n(C)c2ccc(Cl)cc12 (stereo not drawn) [Compound 83, 5-(5-chloro-1-methyl-2-((3-phenylpropoxy)methyl)-1H-indol-3-yl)-3-methyl-5-oxopentanoic acid]",0.7 nM
13,"CC(CC(=O)O)CC(=O)c1c(/C=C/CCCCc2ccccc2)n(C)c2ccc(Cl)cc12 (stereo not drawn) [Compound 85, (E)-5-(5-chloro-1-methyl-2-(6-phenylhex-1-en-1-yl)-1H-indol-3-yl)-3-methyl-5-oxopentanoic acid]",1.93 ± 0.6 nM
14,"CC(CC(=O)O)CC(=O)c1c(CCCCC=Cc2ccccc2)n(C)c2ccc(Cl)cc12 (stereo not drawn) [Compound 94, 5-[5-Chloro-1-methyl-2-(6-phenyl-hex-5-enyl)-1H-indol-3-yl]-3-methyl-5-oxopentanoic acid]",0.65 ± 0.36 nM
15,C[C@H](CC(=O)O)CC(=O)c1c(CCCC/C=C\c2ccccc2)n(C)c2ccc(Cl)cc12 [Compound 95],0.62 ± 0.29 nM
16,C[C@@H](CC(=O)O)CC(=O)c1c(CCCC/C=C\c2ccccc2)n(C)c2ccc(Cl)cc12 [Compound 96],5.5 nM
17,C[C@H](CC(=O)O)CC(=O)c1c(CCCC/C=C/c2ccccc2)n(C)c2ccc(Cl)cc12 [Compound 97],0.071 ± 0.024 nM
18,C[C@@H](CC(=O)O)CC(=O)c1c(CCCC/C=C/c2ccccc2)n(C)c2ccc(Cl)cc12 [Compound 98],1.1 ± 0.19 nM
19,"CCC(C)CCCc1c(C(=O)CC(C)CC(=O)O)c2cc(Cl)ccc2n1C (stereo not drawn) [Compound V225, reference compound]",88 ± 26 nM

# Same assay, conditions: relative to V230
row,Structure (SMILES),reduction of potency compared to V230
1,"CC(CC(=O)O)CC(=O)c1c(CCCc2ccccc2)n(C)c2ccc(Cl)cc12 (stereo not drawn) [Compound 12, 5-(5-chloro-1-methyl-2-(3-phenylpropyl)-1H-indol-3-yl)-3-methyl-5-oxopentanoic acid, reference compound]",about 8 fold
